We go through one compound from PMC9238271, “The quorum sensing peptide EntF* promotes colorectal cancer metastasis in mice: a new factor in the host-microbiome interaction” (BMC Biology, 2022).

For data set [1], the system named is E-cadherin expression in HT-29 cells. In words: Western blot of E-cadherin expression, HT-29 cells. Format: cell-based. The procedure:
HCT-8, HT-29, and HT-116 cells were grown in DMEM medium supplied with 10% fetal bovine serum (FBS) and 1% penicillin-streptomycin. Caco-2 cells were grown in DMEM medium supplied with 10% FBS, 1% non-essential amino acid NEAA), and 1% penicillin-streptomycin. Cells were cultured at 37 °C and 5% CO2. As cells reached confluency, they were detached using 0.25% Trypsin-EDTA.
For Western blot analyses, HCT-8 (n = 15), HCT-116 (n = 12), Caco-2 (n = 6), and HT-29 (n = 12) cells were seeded in 6-well plates at a density of 1 × 10^6 cells/well. Twenty-four hours after seeding, all cell lines were treated with 1 μM EntF* or a placebo solution. HCT-8 cells were also tested for responsiveness to 1 μM EntF* synthetic alanine-derived analogs. For antagonist activity analysis, HCT-8 cells were treated with 1 μM Nef-M1 or 1 μM EntF*A1 alone or in combination with 500 nM EntF*. After 24 h, cells were detached from the surface and lysed in RIPA buffer (Thermo Scientific). Protein concentration was determined using the modified Lowry protein assay kit (Thermo Scientific), according to the manufacturer’s instructions. Protein samples were diluted to the same concentration (4 μg/μL) with water and diluted again 1:1 using 2x Laemmli buffer. After that, samples were boiled for 5 min at 95 °C to denature proteins and centrifuged for 5 min at 16,000g; supernatants were used for Western blot analyses. Equal amounts of total protein (20 μg/lane) were separated by SDS-PAGE on an Any kD^TM gel (Bio-Rad ) and then transferred to a PVDF membrane. Before incubation with antibodies, non-specific binding sites on the membranes were blocked using 5% skimmed milk solution (1 h). TBS buffer with 0.05% Tween 20 was used for all washing steps. Membranes were incubated overnight at 4 °C with an anti-E-cadherin primary antibody (1/1000 dilution). An HRP-conjugated anti-rabbit antibody (1/2000 dilution, 1 h incubation) was used for chemiluminescent detection. Membranes were incubated with the detection substrate for 5 min and signal detection was performed using the ChemiDoc EZ imager and Image Lab software (Bio-Rad). […]

The nature of data set [2]: EntF* in serum of untreated mice, RP-UPLC-TQ-MS (LC1-MS1). The note with it: for EntF* concentration (pM) LC1-MS1: mouse serum, LOQ = 100 pM, below: set at 0. Format: in vivo, C57BL/6 mice. The procedure: After a 30 min incubation on ice, blood was centrifuged at 1000g for 10 min at room temperature. The supernatant (serum) was then transferred to fresh tubes and stored at − 35 °C until use.
Fifty microliters of serum were mixed with 150 μL 0.5% formic acid in acetonitrile. After sonication for 5 min, samples were vortexed for 5 s, then heated for 30 s at 100 °C. The solution was vortexed and centrifuged for 20 min at 20,000g at 4 °C. The supernatant was purified using solid phase extraction (SPE) on HyperSep C18 plates (Thermo Fisher Scientific, Belgium), previously conditioned with acetonitrile and equilibrated with 75% acetonitrile in water, containing 0.375% formic acid. After loading 150 μL of each sample, 120 μL eluent were collected and organic solvents evaporated using nitrogen (1 L/min) for 5 min. The resulting samples were further diluted with 30 μL of BSA-based anti-adsorption solution, and analyzed by LC-MS.
EntF* was detected and quantified on a Waters Acquity® UPLC H-class system, connected to a Waters Xevo™ TQ-S triple quadrupole mass spectrometer with electrospray ionization (operated in positive ionization mode). Autosampler tray and column oven were kept at 10 ± 5 °C and 60 ± 5 °C, respectively. Chromatographic separation was achieved on a Waters Acquity® UPLC BEH Peptide C18 column (300 Å, 1.7 μm, 2.1 mm × 100 mm). The mobile phases consisted of 93/2/5 water/acetonitrile/DMSO (V/V/V) containing 0.1% formic acid (mobile phase A) and 2/93/5 water/acetonitrile/DMSO (V/V/V) containing 0.1% formic acid (mobile phase B), and the flow rate was set to 0.5 mL/min. A 10-μL aliquot from each sample was injected. The gradient program started with 80% of mobile phase A for 1 min, followed by a linear gradient to 40% of mobile phase A for 3.5 min. Gradient was then changed to 14.2% mobile phase A at 5 min, followed by a 1 min equilibration, before starting conditions were applied. EntF* retention time was between 4.25 and 4.45 min.
An optimized capillary voltage of 3.00 kV, a cone voltage of 20.00 V, and a source offset of 50.0 V were used. Acquisition was done in the MRM mode. The selected precursor ion for EntF* was m/z 865.7 with two selected product ions at m/z 202.08 (36 eV, b2 fragment) as quantifier and m/z 315.17 (31 eV, b3 fragment) as qualifier.
A sample was considered positive for the presence of EntF* when the following criteria were met: correct retention time, quantifier/qualifier peak area ratio between 2.0 and 4.0, both quantifier and qualifier peaks with a signal-to-noise ratio > 3.0, and a peptide concentration > 100 pM.

In data set [3] the test system is tumor nodules in the liver. Put plainly: Orthotopic mouse model: histopathological evaluation of liver. It counts as in vivo, female athymic nude mice (Swiss nu/nu). The procedure:
Six-week-old female athymic nude mice (Swiss nu/nu) were anesthetized, and a minimally invasive midline laparotomy was performed to localize the cecum. The cecum was then gently pulled out, and luciferase-transfected HCT-8/E11 cells (1 × 10^6 cells) in 20 μL serum-free DMEM medium with Matrigel (1:1) were injected into the cecal wall. Before implantation, cells were treated with EntF* (10^2 nM), Phr0662 (10^2 nM), vehicle (PBS), or TGFα positive control (0.1 μg mL^−1) solutions for 5 days. The cecum was then carefully placed back into the abdominal cavity and the surgical incision was closed with two layers of sutures with PDS 6-0. […] Once a week, mice were examined for tumor growth and metastases using bioluminescent imaging with the IVIS Lumina II (Perkin Elmer, Belgium) after i.p. injection with 200 μL luciferin (150 mg kg^−1). After 6 weeks, mice were euthanized using cervical dislocation, and the liver, diaphragm, lungs, cecum, duodenum, and peritoneum were macroscopically examined for the presence of tumor nodules. Liver and lung tissues were then fixed in formalin for 24 h and stored in 70% ethanol for maximum 3 days before embedding in paraffin. Next, a hematoxylin and eosin (H&E) staining was performed on 8 μm sections, and 3 sections per mouse were visualized using microscopy. Slides from tumor-bearing mice were analyzed by two blinded, independent investigators using the scoring system described in Additional file 5: Table S3. In case of differences, slides were scored by a third blinded, independent investigator for consensus.

Consider `CC(C)C[C@@H]1NC(=O)[C@H](CO)NC(=O)[C@H](Cc2ccccc2)NC(=O)[C@H](C(C)C)NC(=O)[C@@H](NC(=O)[C@H](CCC(=O)O)NC(=O)[C@@H](NC(=O)[C@H](CC(C)C)NC(=O)[C@H](CC(N)=O)NC(=O)[C@@H](N)CO)C(C)C)CSSC[C@@H](C(=O)N[C@@H](CC(N)=O)C(=O)O)NC(=O)[C@H](CCCCN)NC(=O)[C@H](CCCCN)NC(=O)[C@H](Cc2ccccc2)NC1=O` (single isomer, unassigned) [EntF*], for which the “effect on E-cadherin expression in HT-29 cells” value in data set [1] (1 μM EntF* or CXCL12, 24 h, n = 12) is recorded as “statistically significant reduction”. Also, the “Relative E-cadherin expression, average” value in data set [1] (HT-29 cells, average of n = 12) is given as 73.7. Besides, the “in vivo exposure, average” value in data set [2] (All mice average (<LoD => 0)) is on record as 0.019 nM. In data set [2] (All mice average (<LoD => 0), time 1440 min), the “in vivo exposure, Exposure” value is 27.5 nM·min. Moreover, in data set [2] (Natural in vivo exposure, average of all samples, < LOD: set at 0 pM), the “Concentration (pM), average” value is on record as 19.1243 pM. The “Concentration (pM)” value in data set [2] (Natural in vivo exposure, sample 10809_069_205) was found to be 107.331 pM; in data set [2] (Natural in vivo exposure, sample 10809_069_269) it was 431.362 pM; in data set [2] (Natural in vivo exposure, sample 10809_069_276), 567.385 pM; in data set [2] (Natural in vivo exposure, sample 10809_069_296), 136.998 pM. For the same compound, the “EntF* concentration in mouse serum, Average (pM), All” value in data set [2] (all samples (n=35), samples < LOQ counted as zero) is given as 328.6 pM. In addition, the “amount of EntF* detected in the serum of positive mice” value in data set [2] (endogenous level, six of 35 untreated C57BL/6 mice, LOQ 100 pM, LC1-MS1) was “above 100 pM”. Besides, the “EntF* concentration (pM) LC1-MS1” value in data set [2] (sample 20181011S4) turned out to be 389 pM; in data set [2] (sample 20181011S7), 2146 pM; in data set [2] (sample 20181011S9) it was 3127 pM; in data set [2] (sample 20181011S12), 2489 pM; in data set [2] (sample 20181011S16) it was 3148 pM; in data set [2] (sample 20181011S18), 200 pM. The “number of tumor nodules in the liver compared to the vehicle” value in data set [3] (6 weeks of treatment, H&E histopathological score, n = 30 EntF*, n = 8 PBS) was “significantly higher number of tumor nodules”. The “Histology scoring LIVER, conclusion per group” value in data set [3] (per group) is listed as 1.
